Assay results: ChEMBL document CHEMBL4507319 (2021)

Columns and labels:
Settings in all cases: Compound concentration 1000.0 nM
[1] = biological target: Hepatocyte growth factor receptor (Homo sapiens) (UniProt P08581)
[2] = biological target: T1, Serine/threonine-protein kinase 4 (Homo sapiens) (UniProt Q13043)
T1 sequence (whole entry): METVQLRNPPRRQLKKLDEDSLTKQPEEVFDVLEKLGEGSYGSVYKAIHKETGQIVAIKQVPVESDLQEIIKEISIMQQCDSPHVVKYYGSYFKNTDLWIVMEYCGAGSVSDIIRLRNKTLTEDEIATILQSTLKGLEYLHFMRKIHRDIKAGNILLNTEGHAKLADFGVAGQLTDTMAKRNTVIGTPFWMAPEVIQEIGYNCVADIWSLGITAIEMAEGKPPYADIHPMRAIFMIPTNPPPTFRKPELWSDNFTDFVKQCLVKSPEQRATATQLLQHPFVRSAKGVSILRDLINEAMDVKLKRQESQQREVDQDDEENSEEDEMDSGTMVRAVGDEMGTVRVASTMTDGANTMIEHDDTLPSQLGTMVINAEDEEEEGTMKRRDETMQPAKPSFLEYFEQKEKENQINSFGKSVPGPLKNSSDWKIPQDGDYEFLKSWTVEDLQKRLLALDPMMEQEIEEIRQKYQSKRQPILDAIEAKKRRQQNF

[3] = biological target: Serine/threonine-protein kinase DCLK2 (Homo sapiens) (UniProt Q8N568)
Sequence of Serine/threonine-protein kinase DCLK2 (Homo sapiens) (Q8N568 whole entry, canonical isoform): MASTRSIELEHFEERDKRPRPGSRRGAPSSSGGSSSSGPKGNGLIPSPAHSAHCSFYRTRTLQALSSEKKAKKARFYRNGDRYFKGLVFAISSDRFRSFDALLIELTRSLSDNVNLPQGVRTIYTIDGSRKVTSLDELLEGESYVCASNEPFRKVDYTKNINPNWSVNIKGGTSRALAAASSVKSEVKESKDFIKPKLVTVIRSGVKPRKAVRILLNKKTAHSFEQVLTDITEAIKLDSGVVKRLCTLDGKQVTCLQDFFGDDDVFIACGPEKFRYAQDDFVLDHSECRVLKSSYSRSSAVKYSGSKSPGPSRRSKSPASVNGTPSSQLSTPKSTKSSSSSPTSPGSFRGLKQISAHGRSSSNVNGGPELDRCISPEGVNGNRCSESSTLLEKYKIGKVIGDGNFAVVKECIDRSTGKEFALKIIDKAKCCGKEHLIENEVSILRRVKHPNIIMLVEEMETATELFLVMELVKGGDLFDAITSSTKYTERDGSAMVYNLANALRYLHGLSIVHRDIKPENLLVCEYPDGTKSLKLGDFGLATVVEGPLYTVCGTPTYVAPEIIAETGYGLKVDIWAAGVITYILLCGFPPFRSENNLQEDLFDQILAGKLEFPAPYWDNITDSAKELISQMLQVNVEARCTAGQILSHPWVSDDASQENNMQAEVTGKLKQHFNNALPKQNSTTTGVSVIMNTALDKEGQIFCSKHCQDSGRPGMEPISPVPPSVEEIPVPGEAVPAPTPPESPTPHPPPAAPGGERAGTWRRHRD

[4] = biological target: Casein kinase I isoform gamma-1 (Homo sapiens) (UniProt Q9HCP0)
Sequence of Casein kinase I isoform gamma-1 (Homo sapiens) (Q9HCP0 whole entry, looked up, canonical isoform): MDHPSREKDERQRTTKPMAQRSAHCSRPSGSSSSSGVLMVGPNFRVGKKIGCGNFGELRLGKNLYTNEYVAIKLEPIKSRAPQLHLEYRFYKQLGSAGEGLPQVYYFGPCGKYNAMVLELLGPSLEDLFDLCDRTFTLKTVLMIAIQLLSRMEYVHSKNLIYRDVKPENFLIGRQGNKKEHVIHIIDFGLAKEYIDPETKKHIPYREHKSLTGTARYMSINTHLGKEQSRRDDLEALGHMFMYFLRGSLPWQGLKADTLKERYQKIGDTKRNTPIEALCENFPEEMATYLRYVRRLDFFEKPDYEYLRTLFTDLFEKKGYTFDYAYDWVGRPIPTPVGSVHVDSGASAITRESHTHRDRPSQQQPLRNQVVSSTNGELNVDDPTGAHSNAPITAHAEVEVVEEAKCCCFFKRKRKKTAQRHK

[5] = biological target: Mitogen-activated protein kinase kinase kinase 15 (Homo sapiens) (UniProt Q6ZN16)
[6] = biological target: Eukaryotic translation initiation factor 2-alpha kinase 1 (Homo sapiens) (UniProt Q9BQI3)
Sequence of Eukaryotic translation initiation factor 2-alpha kinase 1 (Homo sapiens) (Q9BQI3 whole entry): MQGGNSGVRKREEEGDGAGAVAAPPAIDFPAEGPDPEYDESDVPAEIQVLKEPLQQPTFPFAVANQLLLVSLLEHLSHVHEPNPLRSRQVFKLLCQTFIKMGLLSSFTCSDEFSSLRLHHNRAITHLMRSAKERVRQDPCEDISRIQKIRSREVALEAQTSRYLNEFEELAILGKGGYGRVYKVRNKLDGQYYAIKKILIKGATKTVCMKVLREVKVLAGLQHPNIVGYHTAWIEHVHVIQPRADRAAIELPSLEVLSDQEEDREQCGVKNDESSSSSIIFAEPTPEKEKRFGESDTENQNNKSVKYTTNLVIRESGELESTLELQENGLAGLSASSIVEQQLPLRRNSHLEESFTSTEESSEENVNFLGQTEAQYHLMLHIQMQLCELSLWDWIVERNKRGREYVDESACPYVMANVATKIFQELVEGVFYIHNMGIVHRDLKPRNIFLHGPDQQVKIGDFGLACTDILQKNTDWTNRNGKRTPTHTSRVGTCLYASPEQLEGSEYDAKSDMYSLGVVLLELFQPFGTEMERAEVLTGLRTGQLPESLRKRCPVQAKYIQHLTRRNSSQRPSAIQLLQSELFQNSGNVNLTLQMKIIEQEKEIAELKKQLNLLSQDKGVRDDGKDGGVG

[7] = biological target: T2, Serine/threonine-protein kinase Nek2 (Homo sapiens) (UniProt P51955)
T2 sequence (whole entry): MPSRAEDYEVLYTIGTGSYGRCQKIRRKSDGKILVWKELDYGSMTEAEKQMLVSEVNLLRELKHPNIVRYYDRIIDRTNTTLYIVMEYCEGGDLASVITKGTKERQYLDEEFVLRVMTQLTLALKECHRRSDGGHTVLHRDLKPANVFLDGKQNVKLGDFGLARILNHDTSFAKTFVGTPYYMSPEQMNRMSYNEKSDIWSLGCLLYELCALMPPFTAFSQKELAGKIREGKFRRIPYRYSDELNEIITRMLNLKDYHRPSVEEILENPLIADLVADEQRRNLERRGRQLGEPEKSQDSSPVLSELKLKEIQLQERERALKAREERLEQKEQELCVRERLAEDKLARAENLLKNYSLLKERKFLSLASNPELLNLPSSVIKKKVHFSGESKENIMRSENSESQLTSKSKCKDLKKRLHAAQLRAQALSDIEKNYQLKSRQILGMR

[8] = biological target: Cyclin-dependent kinase 3 (Homo sapiens) (UniProt Q00526)
Sequence of Cyclin-dependent kinase 3 (Homo sapiens) (Q00526 whole entry, looked up): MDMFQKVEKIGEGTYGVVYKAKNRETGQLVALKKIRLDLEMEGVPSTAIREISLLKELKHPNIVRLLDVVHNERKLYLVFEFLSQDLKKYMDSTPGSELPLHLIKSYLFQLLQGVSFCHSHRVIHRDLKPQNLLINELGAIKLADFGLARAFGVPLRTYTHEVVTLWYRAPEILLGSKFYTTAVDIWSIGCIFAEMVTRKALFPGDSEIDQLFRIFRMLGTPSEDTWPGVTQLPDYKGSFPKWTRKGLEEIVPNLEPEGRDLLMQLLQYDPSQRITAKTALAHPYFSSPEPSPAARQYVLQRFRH

[9] = biological target: Mitogen-activated protein kinase 14 (Homo sapiens) (UniProt Q16539)
Sequence of Mitogen-activated protein kinase 14 (Homo sapiens) (Q16539 whole entry): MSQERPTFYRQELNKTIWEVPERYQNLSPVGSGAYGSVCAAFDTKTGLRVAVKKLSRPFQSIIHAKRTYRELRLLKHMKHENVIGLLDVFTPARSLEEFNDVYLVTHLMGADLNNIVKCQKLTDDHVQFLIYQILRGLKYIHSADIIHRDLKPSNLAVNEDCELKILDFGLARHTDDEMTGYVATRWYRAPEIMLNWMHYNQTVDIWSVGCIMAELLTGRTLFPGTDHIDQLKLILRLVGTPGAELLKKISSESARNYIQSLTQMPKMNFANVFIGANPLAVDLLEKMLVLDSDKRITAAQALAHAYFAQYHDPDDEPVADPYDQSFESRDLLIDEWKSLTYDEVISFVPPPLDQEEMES

[10] = biological target: T3, Serine/threonine-protein kinase BRSK1 (Homo sapiens) (UniProt Q8TDC3)
T3 sequence (whole entry): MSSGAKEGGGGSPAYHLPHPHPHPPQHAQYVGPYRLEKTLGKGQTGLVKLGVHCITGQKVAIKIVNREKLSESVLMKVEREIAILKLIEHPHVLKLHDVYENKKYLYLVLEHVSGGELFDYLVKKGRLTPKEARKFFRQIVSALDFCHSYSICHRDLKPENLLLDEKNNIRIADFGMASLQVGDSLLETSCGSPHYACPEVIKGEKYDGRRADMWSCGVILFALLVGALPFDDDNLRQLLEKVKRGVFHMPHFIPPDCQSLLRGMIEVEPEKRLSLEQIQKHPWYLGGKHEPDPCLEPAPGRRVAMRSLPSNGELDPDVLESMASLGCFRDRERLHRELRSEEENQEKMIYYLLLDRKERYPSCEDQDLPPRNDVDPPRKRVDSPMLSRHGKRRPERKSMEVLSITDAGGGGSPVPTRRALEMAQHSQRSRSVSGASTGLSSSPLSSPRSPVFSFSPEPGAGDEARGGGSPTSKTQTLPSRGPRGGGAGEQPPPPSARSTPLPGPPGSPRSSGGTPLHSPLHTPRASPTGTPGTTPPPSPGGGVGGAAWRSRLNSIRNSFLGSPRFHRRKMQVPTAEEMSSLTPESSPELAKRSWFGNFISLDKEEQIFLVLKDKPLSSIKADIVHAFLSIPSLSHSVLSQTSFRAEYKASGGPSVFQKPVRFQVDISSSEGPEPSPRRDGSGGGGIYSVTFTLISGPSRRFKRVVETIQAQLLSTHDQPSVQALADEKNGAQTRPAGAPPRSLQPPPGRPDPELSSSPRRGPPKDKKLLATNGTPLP

[11] = biological target: T4, Serine/threonine-protein kinase Nek3 (Homo sapiens) (UniProt P51956)
T4 sequence (whole entry): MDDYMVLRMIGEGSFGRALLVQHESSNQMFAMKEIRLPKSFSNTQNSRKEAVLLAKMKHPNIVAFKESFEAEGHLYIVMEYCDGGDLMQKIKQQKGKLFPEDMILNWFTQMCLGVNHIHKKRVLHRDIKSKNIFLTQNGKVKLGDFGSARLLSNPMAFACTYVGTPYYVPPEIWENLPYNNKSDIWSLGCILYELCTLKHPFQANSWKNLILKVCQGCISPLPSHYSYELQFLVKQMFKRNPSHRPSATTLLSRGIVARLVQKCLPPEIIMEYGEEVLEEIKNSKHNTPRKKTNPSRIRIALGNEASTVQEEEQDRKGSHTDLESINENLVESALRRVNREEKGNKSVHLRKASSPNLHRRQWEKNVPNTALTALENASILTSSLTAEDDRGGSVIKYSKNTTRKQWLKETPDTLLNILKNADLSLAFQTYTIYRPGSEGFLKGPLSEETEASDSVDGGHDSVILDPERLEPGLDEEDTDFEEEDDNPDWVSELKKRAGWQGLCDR

[12] = biological target: Cyclin-dependent kinase-like 2 (Homo sapiens) (UniProt Q92772)
[13] = biological target: Cyclin-G-associated kinase (Homo sapiens) (UniProt O14976)
Sequence of Cyclin-G-associated kinase (Homo sapiens) (O14976 whole entry): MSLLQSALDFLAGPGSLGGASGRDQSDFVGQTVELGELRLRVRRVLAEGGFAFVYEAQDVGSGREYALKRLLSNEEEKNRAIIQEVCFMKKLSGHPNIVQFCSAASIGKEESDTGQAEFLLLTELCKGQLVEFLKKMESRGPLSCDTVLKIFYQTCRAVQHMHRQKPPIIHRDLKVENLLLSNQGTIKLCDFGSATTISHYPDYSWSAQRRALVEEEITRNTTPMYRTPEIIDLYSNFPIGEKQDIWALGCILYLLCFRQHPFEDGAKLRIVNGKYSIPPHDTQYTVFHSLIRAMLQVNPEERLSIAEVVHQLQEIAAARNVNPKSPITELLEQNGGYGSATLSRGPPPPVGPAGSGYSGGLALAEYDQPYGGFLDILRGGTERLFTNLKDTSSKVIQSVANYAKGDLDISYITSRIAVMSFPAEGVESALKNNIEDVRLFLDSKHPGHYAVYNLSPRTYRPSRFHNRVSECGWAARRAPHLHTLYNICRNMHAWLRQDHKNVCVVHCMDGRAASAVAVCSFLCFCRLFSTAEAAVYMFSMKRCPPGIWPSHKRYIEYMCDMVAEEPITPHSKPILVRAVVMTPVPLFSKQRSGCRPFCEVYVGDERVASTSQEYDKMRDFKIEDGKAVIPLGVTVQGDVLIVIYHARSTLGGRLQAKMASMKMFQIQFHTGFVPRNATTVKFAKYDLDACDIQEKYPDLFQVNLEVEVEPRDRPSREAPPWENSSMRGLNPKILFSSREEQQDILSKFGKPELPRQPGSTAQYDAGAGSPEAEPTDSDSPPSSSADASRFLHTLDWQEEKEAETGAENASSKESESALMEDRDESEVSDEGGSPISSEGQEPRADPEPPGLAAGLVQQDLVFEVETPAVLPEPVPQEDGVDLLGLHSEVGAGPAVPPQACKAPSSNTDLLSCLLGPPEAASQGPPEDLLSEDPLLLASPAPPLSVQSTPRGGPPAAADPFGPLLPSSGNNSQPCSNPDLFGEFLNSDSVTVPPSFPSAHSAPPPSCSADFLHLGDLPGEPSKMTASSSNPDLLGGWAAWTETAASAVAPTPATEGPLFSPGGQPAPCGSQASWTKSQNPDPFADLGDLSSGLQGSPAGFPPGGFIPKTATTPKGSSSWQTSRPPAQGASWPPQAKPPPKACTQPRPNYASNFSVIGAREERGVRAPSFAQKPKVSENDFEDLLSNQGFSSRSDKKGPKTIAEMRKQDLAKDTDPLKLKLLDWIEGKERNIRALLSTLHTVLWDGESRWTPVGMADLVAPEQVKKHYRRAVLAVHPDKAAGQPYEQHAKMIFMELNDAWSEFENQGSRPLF

[14] = biological target: Ephrin type-A receptor 6 (Homo sapiens) (UniProt Q9UF33)
Sequence of Ephrin type-A receptor 6 (Homo sapiens) (Q9UF33 whole entry): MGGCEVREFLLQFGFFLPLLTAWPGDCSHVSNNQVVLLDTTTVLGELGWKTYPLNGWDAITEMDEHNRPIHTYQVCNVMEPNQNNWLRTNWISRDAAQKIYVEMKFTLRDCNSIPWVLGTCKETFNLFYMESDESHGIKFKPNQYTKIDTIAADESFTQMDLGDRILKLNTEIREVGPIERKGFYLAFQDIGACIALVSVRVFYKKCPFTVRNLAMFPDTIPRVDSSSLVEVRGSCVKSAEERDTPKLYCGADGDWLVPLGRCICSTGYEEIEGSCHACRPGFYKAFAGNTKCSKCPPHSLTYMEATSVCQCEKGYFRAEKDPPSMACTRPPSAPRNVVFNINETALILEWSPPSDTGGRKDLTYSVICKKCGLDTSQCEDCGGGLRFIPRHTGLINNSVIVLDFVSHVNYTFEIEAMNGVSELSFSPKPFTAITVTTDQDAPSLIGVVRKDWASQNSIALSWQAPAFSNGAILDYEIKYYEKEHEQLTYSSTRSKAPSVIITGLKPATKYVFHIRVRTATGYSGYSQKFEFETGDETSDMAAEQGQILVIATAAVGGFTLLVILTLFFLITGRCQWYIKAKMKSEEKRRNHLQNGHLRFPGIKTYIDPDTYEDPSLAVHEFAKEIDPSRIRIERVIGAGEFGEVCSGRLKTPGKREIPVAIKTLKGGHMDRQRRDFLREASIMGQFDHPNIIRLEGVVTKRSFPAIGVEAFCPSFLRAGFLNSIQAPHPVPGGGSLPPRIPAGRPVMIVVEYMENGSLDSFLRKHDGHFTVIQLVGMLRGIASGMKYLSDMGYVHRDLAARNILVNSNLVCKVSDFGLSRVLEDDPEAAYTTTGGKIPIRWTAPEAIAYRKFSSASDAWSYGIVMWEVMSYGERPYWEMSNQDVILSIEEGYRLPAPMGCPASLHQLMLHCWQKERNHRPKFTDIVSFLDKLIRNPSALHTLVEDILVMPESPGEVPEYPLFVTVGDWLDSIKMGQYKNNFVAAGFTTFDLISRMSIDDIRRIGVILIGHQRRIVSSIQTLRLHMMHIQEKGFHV

[15] = biological target: Cyclin-dependent kinase 11B (Homo sapiens) (UniProt P21127)

CCc1ccccc1C(=O)Nc1n[nH]c2c(C)c(F)c(C3C(C#N)=C(C)N(C)C(C)=C3C#N)cc12 [BAY-3827]
residual activity [1]: 7.3%
residual activity [2]: 98%
residual activity [3]: 64%
residual activity [4]: 95%
residual activity [5]: 96%
residual activity [6]: 100%
residual activity [7]: 87%
residual activity [8]: 88%
residual activity [9]: 100%
residual activity [10]: 55%
residual activity [11]: 100%
residual activity [12]: 94%
residual activity [13]: 82%
residual activity [14]: 57%
residual activity [15]: 100%

CC1=C(C#N)C(c2ccc3c(c2)c(NC(=O)c2ccccc2C)nn3C)C(C#N)=C(C)N1 [BAY-974]
residual activity [1]: 24%
residual activity [2]: 80%
residual activity [3]: 100%
residual activity [4]: 100%
residual activity [5]: 96%
residual activity [6]: 100%
residual activity [7]: 100%
residual activity [8]: 99%
residual activity [9]: 88%
residual activity [10]: 100%
residual activity [11]: 94%
residual activity [12]: 100%
residual activity [13]: 100%
residual activity [14]: 89%
residual activity [15]: 100%
